Columns and labels:
[1] = refractive index (Na D-line) (dimensionless); settings: 101.33 kPa, Liquid, Standard Abbe refractometry
[2] = Pendant drop shape
[3] = refractive index (Na D-line) (dimensionless); wn = mass fraction of the nth substance listed; settings: 101 kPa, Liquid, Standard Abbe refractometry
[4] = wn = mass fraction of the nth substance listed; settings: Pendant drop shape

CC(CC(C)(C)C)CP(=O)([O-])CC(C)CC(C)(C)C.CCCCCCCCCCCCCC[P+](CCCCCC)(CCCCCC)CCCCCC
Settings | refractive index | surface tension liquid-gas [mN/m]
[1], 283.15 K | 1.47702 | –
[1], 288.15 K | 1.47538 | –
[1], 293.15 K | 1.47374 | –
[1], 298.15 K | 1.47209 | –
[1], 303.15 K | 1.47044 | –
[1], 308.15 K | 1.46879 | –
[1], 313.15 K | 1.46712 | –
[1], 318.15 K | 1.46546 | –
[1], 323.15 K | 1.46383 | –
[1], 328.15 K | 1.46216 | –
[1], 333.15 K | 1.46056 | –
[1], 338.15 K | 1.45893 | –
[1], 343.15 K | 1.45716 | –
[1], 348.15 K | 1.45553 | –
[1], 353.15 K | 1.45387 | –
[2], 297.9 K | – | 28.2
[2], 307.9 K | – | 27.6
[2], 317.7 K | – | 26.9
[2], 328.1 K | – | 26.2
[2], 338 K | – | 25.5
[2], 342.9 K | – | 25

CCCCCCCCCCCCCC[P+](CCCCCC)(CCCCCC)CCCCCC.O=S(=O)([N-]S(=O)(=O)C(F)(F)F)C(F)(F)F
Settings | refractive index | surface tension liquid-gas [mN/m]
[1], 283.15 K | 1.45436 | –
[1], 288.15 K | 1.45279 | –
[1], 293.15 K | 1.4512 | –
[1], 298.15 K | 1.4496 | –
[1], 303.15 K | 1.44797 | –
[1], 308.15 K | 1.44637 | –
[1], 313.15 K | 1.44476 | –
[1], 318.15 K | 1.44317 | –
[1], 323.15 K | 1.44158 | –
[1], 328.15 K | 1.43948 | –
[1], 333.15 K | 1.43836 | –
[1], 338.15 K | 1.43681 | –
[1], 343.15 K | 1.43524 | –
[1], 348.15 K | 1.4337 | –
[1], 353.15 K | 1.43213 | –
[2], 298.2 K | – | 30.1
[2], 307.9 K | – | 29.5
[2], 317.9 K | – | 28.7
[2], 327.9 K | – | 28.1
[2], 337.8 K | – | 27.5
[2], 343.2 K | – | 27.3

CC(CC(C)(C)C)CP(=O)([O-])CC(C)CC(C)(C)C.CCCCCCCCCCCCCC[P+](CCCCCC)(CCCCCC)CCCCCC + O
w2 = 0.158
Settings | refractive index | surface tension liquid-gas [mN/m]
[3], 298.15 K | 1.45864 | –
[3], 303.15 K | 1.45697 | –
[3], 308.15 K | 1.45534 | –
[3], 313.15 K | 1.45363 | –
[3], 318.15 K | 1.45192 | –
[3], 323.15 K | 1.45019 | –
[3], 328.15 K | 1.44849 | –
[3], 333.15 K | 1.44683 | –
[3], 338.15 K | 1.44523 | –
[3], 343.15 K | 1.44374 | –
[3], 348.15 K | 1.4424 | –
[3], 353.15 K | 1.44126 | –
[4], 297.9 K | – | 28.32
[4], 307.9 K | – | 27.7
[4], 317.9 K | – | 27.24
[4], 328.8 K | – | 26.41
[4], 339 K | – | 25.6
[4], 343.4 K | – | 25.34

CCCCCCCCCCCCCC[P+](CCCCCC)(CCCCCC)CCCCCC.O=S(=O)([N-]S(=O)(=O)C(F)(F)F)C(F)(F)F + O
w2 = 0.0023
Settings | refractive index | surface tension liquid-gas [mN/m]
[3], 298.15 K | 1.44921 | –
[3], 303.15 K | 1.44765 | –
[3], 308.15 K | 1.44606 | –
[3], 313.15 K | 1.44449 | –
[3], 318.15 K | 1.44293 | –
[3], 323.15 K | 1.44136 | –
[3], 328.15 K | 1.4398 | –
[3], 333.15 K | 1.43822 | –
[3], 338.15 K | 1.43669 | –
[3], 343.15 K | 1.43515 | –
[3], 348.15 K | 1.43362 | –
[3], 353.15 K | 1.43207 | –
[4], 298.1 K | – | 30.05
[4], 307.8 K | – | 29.33
[4], 318 K | – | 28.6
[4], 328 K | – | 27.91
[4], 338.6 K | – | 27.17
[4], 343.3 K | – | 26.88

CCCCCCCCCCCCCC[P+](CCCCCC)(CCCCCC)CCCCCC.N#C[N-]C#N [tetradecyl(trihexyl)phosphonium dicyanamide]
Settings | refractive index | surface tension liquid-gas [mN/m]
[1], 283.15 K | 1.48861 | –
[1], 288.15 K | 1.48706 | –
[1], 293.15 K | 1.48545 | –
[1], 298.15 K | 1.48387 | –
[1], 303.15 K | 1.48228 | –
[1], 308.15 K | 1.48064 | –
[1], 313.15 K | 1.47902 | –
[1], 318.15 K | 1.47744 | –
[1], 323.15 K | 1.47585 | –
[1], 328.15 K | 1.47421 | –
[1], 333.15 K | 1.47252 | –
[1], 338.15 K | 1.4709 | –
[1], 343.15 K | 1.46926 | –
[1], 348.15 K | 1.46767 | –
[1], 353.15 K | 1.46599 | –
[2], 298.4 K | – | 32.3
[2], 308 K | – | 31.6
[2], 318 K | – | 30.9
[2], 328.4 K | – | 30.3
[2], 339.2 K | – | 29.7
[2], 343.4 K | – | 29.4

CCCCCCCCCCCCCC[P+](CCCCCC)(CCCCCC)CCCCCC.N#C[N-]C#N [tetradecyl(trihexyl)phosphonium dicyanamide] + O
w2 = 0.0309
Settings | refractive index | surface tension liquid-gas [mN/m]
[3], 298.15 K | 1.47866 | –
[3], 303.15 K | 1.47702 | –
[3], 308.15 K | 1.47535 | –
[3], 313.15 K | 1.47367 | –
[3], 318.15 K | 1.47207 | –
[3], 323.15 K | 1.47049 | –
[3], 328.15 K | 1.46893 | –
[3], 333.15 K | 1.46739 | –
[3], 338.15 K | 1.46586 | –
[3], 343.15 K | 1.46442 | –
[3], 348.15 K | 1.46302 | –
[3], 353.15 K | 1.46163 | –
[4], 298.2 K | – | 32.56
[4], 307.8 K | – | 31.8
[4], 318 K | – | 31.2
[4], 328 K | – | 30.5
[4], 338.8 K | – | 29.9
[4], 342.8 K | – | 29.5

CCCCCCCCCCCCCC[P+](CCCCCC)(CCCCCC)CCCCCC.[Br-] [tetradecyltrihexylphosphonium bromide]
Settings | refractive index | surface tension liquid-gas [mN/m]
[1], 283.15 K | 1.49456 | –
[1], 288.15 K | 1.49295 | –
[1], 293.15 K | 1.49139 | –
[1], 298.15 K | 1.48977 | –
[1], 303.15 K | 1.48814 | –
[1], 308.15 K | 1.48654 | –
[1], 313.15 K | 1.4849 | –
[1], 318.15 K | 1.4833 | –
[1], 323.15 K | 1.48167 | –
[1], 328.15 K | 1.47999 | –
[1], 333.15 K | 1.47834 | –
[1], 338.15 K | 1.47677 | –
[1], 343.15 K | 1.47511 | –
[1], 348.15 K | 1.47346 | –
[1], 353.15 K | 1.47189 | –
[2], 298.2 K | – | 30.9
[2], 308.5 K | – | 30.2
[2], 318 K | – | 29.6
[2], 328.8 K | – | 28.7
[2], 338.6 K | – | 28.1
[2], 343.4 K | – | 27.9
